Reference: patent US11845752B2, “Substituted imidazo[1,5-a]pyrazines for the treatment of hepatitis B” (ALIGOS THERAPEUTICS, INC., priority 2020, dated 2023)

tested on: HBV; assay: HBV-DNA antiviral assay using HepG2.117 cells (intracellular HBV DNA by qPCR); assay type: cell-based, HBV genotype D; settings: HBV DNA inhibition, 3 days incubation, read-out: EC50
Method in brief: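 HepG2.117 cells (stably integrated genotype D HBV, Tet-off) seeded without doxycycline to induce pgRNA, then treated next day with 9 concentrations (4-fold dilutions, 2% DMSO) for 3 days at 37 °C. Intracellular HBV DNA quantified by qPCR against standard curve, viability by ATP content; inhibition relative to DMSO control, EC50/EC90/CC50 by non-linear regression.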

Compared with COc1cnn(-c2ccccc2CNC(=O)c2c3n(c(=O)n2-c2ccc(OC4CC4)cc2)CC(C)N(C(=O)c2ccc(Br)c(Cl)c2)C3)c1 (single isomer, unassigned) [Compound 17b, 7-(4-bromo-3-chloro-benzoyl)-2-[4-(cyclopropoxy)phenyl]-N-[[2-(4-methoxypyrazol-1-yl)phenyl]methyl]-6-methyl-3-oxo-6,8-dihydro-5H-imidazo[1,5-a]pyrazine-1-carboxamide], CC1Cn2c(c(C(=O)NCc3ccccc3-n3cc(N)cn3)n(-c3ccc(OC4CC4)cc3)c2=O)CN1C(=O)c1ccc(Br)c(Cl)c1 (single isomer, unassigned) [Compound 19a] is higher in EC50: under 0.05 µM for the first, 0.5 to 5 µM for the second. The first is the more potent here.

CC1Cn2c(c(C(=O)NCc3ccccc3-c3cn(C)cn3)n(-c3ccc(OC4CC4)cc3)c2=O)CN1C(=O)c1ccc(Br)c(Cl)c1 (single isomer, unassigned) [Compound 18b, 7-(4-bromo-3-chloro-benzoyl)-2-[4-(cyclopropoxy)phenyl]-6-methyl-N-[[2-(1-methylimidazol-4-yl)phenyl]methyl]-3-oxo-6,8-dihydro-5H-imidazo[1,5-a]pyrazine-1-carboxamide] and CC1Cn2c(c(C(=O)NCc3ccccc3-c3ccn(C)n3)n(-c3ccc(OC4CC4)cc3)c2=O)CN1C(=O)c1ccc(Br)c(Cl)c1 (single isomer, unassigned) [Compound 22b] cannot be ordered by EC50: under 0.05 µM for the first, under 0.05 µM for the second.

First: CC1Cn2c(c(C(=O)NCc3ccccc3-n3cc(N)cn3)n(-c3ccc(OC4CC4)cc3)c2=O)CN1C(=O)c1ccc(Br)c(Cl)c1 (single isomer, unassigned) [Compound 19b]
Second: CC1Cn2c(c(C(=O)NCc3ccccc3-c3cccc(N)n3)n(-c3ccc(OC4CC4)cc3)c2=O)CN1C(=O)c1ccc(Br)c(Cl)c1 (single isomer, unassigned) [Compound 23b]
The EC50 of the first is higher: 0.05 to 0.5 µM for the first, under 0.05 µM for the second.

Compared with C#Cc1cc(C(=O)N2Cc3c(C(=O)NCc4ccccc4-c4ccncn4)n(-c4ccc(OC5CC5)cc4)c(=O)n3CC2C)ccc1Br (single isomer, unassigned) [Compound 20a], COc1nccc(-c2ccccc2CNC(=O)c2c3n(c(=O)n2-c2ccc(OC4CC4)cc2)CC(C)N(C(=O)c2ccc(Br)c(Cl)c2)C3)n1 (single isomer, unassigned) [Compound 37b] is lower in EC50: 0.5 to 5 µM for the first, under 0.05 µM for the second.

First: C#Cc1cc(C(=O)N2Cc3c(C(=O)NCc4ccccc4-c4ccncn4)n(-c4ccc(OC5CC5)cc4)c(=O)n3CC2C)ccc1Br (single isomer, unassigned) [Compound 20b]
Second: CC1Cn2c(c(C(=O)NCc3ccccc3-c3nccc(N)n3)n(-c3ccc(OC4CC4)cc3)c2=O)CN1C(=O)c1ccc(Br)c(Cl)c1 (single isomer, unassigned) [Compound 30b]
The EC50 of the first is higher: 0.05 to 0.5 µM for the first, under 0.05 µM for the second.

First: CC1Cn2c(c(C(=O)NCc3ccccc3-c3ncccn3)n(-c3ccc(N4CCN(C)CC4)cc3)c2=O)CN1C(=O)c1ccc(Br)c(Cl)c1 (single isomer, unassigned) [Compound 21b]
Second: CC1Cn2c(c(C(=O)NCc3ccccc3-c3nccc(N)n3)n(-c3ccc(OC4CC4)cc3)c2=O)CN1C(=O)c1ccc(Br)c(C(F)(F)F)c1 (single isomer, unassigned) [Compound 29b]
The EC50 of the first is higher: 0.05 to 0.5 µM for the first, under 0.05 µM for the second. The second is the more potent here.

CC1Cn2c(c(C(=O)NCc3c(F)cccc3-n3cccn3)n(-c3ccc(OC4CC4)cc3)c2=O)CN1C(=O)c1ccc(Br)c(Cl)c1 (single isomer, unassigned) [Compound 24b] and CC1Cn2c(c(C(=O)NCc3c(F)cccc3-n3cccn3)n(-c3ccc(OC4CC4)cc3)c2=O)CN1C(=O)c1ccc(Br)c(C(F)(F)F)c1 (single isomer, unassigned) [Compound 25b] cannot be ordered by EC50: under 0.05 µM for the first, under 0.05 µM for the second.

CC1Cn2c(c(C(=O)NCc3ccccc3-c3cccc(N)n3)n(-c3ccc(OC4CC4)cc3)c2=O)CN1C(=O)c1ccc(Br)c(C(F)(F)F)c1 (single isomer, unassigned) [Compound 27b] and CC1Cn2c(c(C(=O)NCc3c(F)cccc3-c3cccc(N)n3)n(-c3ccc(OC4CC4)cc3)c2=O)CN1C(=O)c1ccc(Br)c(C(F)(F)F)c1 (single isomer, unassigned) [Compound 36b] cannot be ordered by EC50: under 0.05 µM for the first, under 0.05 µM for the second.

CC1Cn2c(c(C(=O)NCc3c(F)cccc3-c3nccc(N)n3)n(-c3ccc(OC4CC4)cc3)c2=O)CN1C(=O)c1ccc(Br)c(Cl)c1 (single isomer, unassigned) [Compound 31b] and CC1Cn2c(c(C(=O)NCc3c(F)cccc3-c3nccc(N)n3)n(-c3ccc(OC4CC4)cc3)c2=O)CN1C(=O)c1ccc(Br)c(C(F)(F)F)c1 (single isomer, unassigned) [Compound 32b] cannot be ordered by EC50: under 0.05 µM for the first, under 0.05 µM for the second.

Cc1nnc(-c2cccc(F)c2CNC(=O)c2c3n(c(=O)n2-c2ccc(OC4CC4)cc2)CC(C)N(C(=O)c2ccc(Br)c(C(F)(F)F)c2)C3)o1 (single isomer, unassigned) [Compound 33b] and COc1nccc(-c2ccccc2CNC(=O)c2c3n(c(=O)n2-c2ccc(OC4CC4)cc2)CC(C)N(C(=O)c2ccc(Br)c(C(F)(F)F)c2)C3)n1 (single isomer, unassigned) [Compound 38b] cannot be ordered by EC50: under 0.05 µM for the first, under 0.05 µM for the second.

Compound CC1Cn2c(c(C(=O)NCc3c(F)cccc3-c3cccc(N)n3)n(-c3ccc(OC4CC4)cc3)c2=O)CN1C(=O)c1ccc(Br)c(Cl)c1 (single isomer, unassigned) [Compound 35b] has an EC50 of under 0.05 µM.

same assay, conditions: Hepatitis B virus, HepG2.117, 72 h, HBV DNA inhibition, 3 days incubation, read-out: EC50

CC1Cn2c(c(C(=O)NCc3ccccc3-c3cn(C)cn3)n(-c3ccc(OC4CC4)cc3)c2=O)CN1C(=O)c1ccc(Br)c(Cl)c1 (single isomer, unassigned) [Compound 18a, 7-(4-bromo-3-chloro-benzoyl)-2-[4-(cyclopropoxy)phenyl]-6-methyl-N-[[2-(1-methylimidazol-4-yl)phenyl]methyl]-3-oxo-6,8-dihydro-5H-imidazo[1,5-a]pyrazine-1-carboxamide] and CC1Cn2c(c(C(=O)NCc3ccccc3-c3ccn(C)n3)n(-c3ccc(OC4CC4)cc3)c2=O)CN1C(=O)c1ccc(Br)c(Cl)c1 (single isomer, unassigned) [Compound 22a] fall in the same range of EC50: 0.05 to 0.5 µM for the first, 0.05 to 0.5 µM for the second.

First: CC1Cn2c(c(C(=O)NCc3ccccc3-c3ncccn3)n(-c3ccc(N4CCN(C)CC4)cc3)c2=O)CN1C(=O)c1ccc(Br)c(Cl)c1 (single isomer, unassigned) [Compound 21a]
Second: CC1Cn2c(c(C(=O)NCc3ccccc3-c3nccc(N)n3)n(-c3ccc(OC4CC4)cc3)c2=O)CN1C(=O)c1ccc(Br)c(Cl)c1 (single isomer, unassigned) [Compound 30a]
The EC50 of the first is lower: under 0.05 µM for the first, 0.05 to 0.5 µM for the second. The first is the more potent here.

First: CC1Cn2c(c(C(=O)NCc3ccccc3-c3cccc(N)n3)n(-c3ccc(OC4CC4)cc3)c2=O)CN1C(=O)c1ccc(Br)c(Cl)c1 (single isomer, unassigned) [Compound 23a]
Second: CC1Cn2c(c(C(=O)NCc3ccccc3-c3cccc(N)n3)n(-c3ccc(OC4CC4)cc3)c2=O)CN1C(=O)c1ccc(Br)c(C(F)(F)F)c1 (single isomer, unassigned) [Compound 27a]
The EC50 of the first is higher: 0.05 to 0.5 µM for the first, under 0.05 µM for the second.

CC1Cn2c(c(C(=O)NCc3c(F)cccc3-n3cccn3)n(-c3ccc(OC4CC4)cc3)c2=O)CN1C(=O)c1ccc(Br)c(Cl)c1 (single isomer, unassigned) [Compound 24a] and CC1Cn2c(c(C(=O)NCc3c(F)cccc3-n3cccn3)n(-c3ccc(OC4CC4)cc3)c2=O)CN1C(=O)c1ccc(Br)c(C(F)(F)F)c1 (single isomer, unassigned) [Compound 25a] fall in the same range of EC50: 0.05 to 0.5 µM for the first, 0.05 to 0.5 µM for the second.

First: CNc1ccnc(-c2ccccc2CNC(=O)c2c3n(c(=O)n2-c2ccc(OC4CC4)cc2)CC(C)N(C(=O)c2ccc(Br)c(Cl)c2)C3)n1 (single isomer, unassigned) [Compound 26a]
Second: COc1nccc(-c2ccccc2CNC(=O)c2c3n(c(=O)n2-c2ccc(OC4CC4)cc2)CC(C)N(C(=O)c2ccc(Br)c(Cl)c2)C3)n1 (single isomer, unassigned) [Compound 37a]
The EC50 of the first is lower: under 0.05 µM for the first, 0.05 to 0.5 µM for the second. The first is the more potent here.

CC1Cn2c(c(C(=O)NCc3ccccc3-c3nccc(N)n3)n(-c3ccc(OC4CC4)cc3)c2=O)CN1C(=O)c1ccc(Br)c(C(F)(F)F)c1 (single isomer, unassigned) [Compound 29a] and CC1Cn2c(c(C(=O)NCc3c(F)cccc3-c3nccc(N)n3)n(-c3ccc(OC4CC4)cc3)c2=O)CN1C(=O)c1ccc(Br)c(C(F)(F)F)c1 (single isomer, unassigned) [Compound 32a] cannot be ordered by EC50: under 0.05 µM for the first, under 0.05 µM for the second.

CC1Cn2c(c(C(=O)NCc3c(F)cccc3-c3nccc(N)n3)n(-c3ccc(OC4CC4)cc3)c2=O)CN1C(=O)c1ccc(Br)c(Cl)c1 (single isomer, unassigned) [Compound 31a] and CC1Cn2c(c(C(=O)NCc3c(F)cccc3-c3cccc(N)n3)n(-c3ccc(OC4CC4)cc3)c2=O)CN1C(=O)c1ccc(Br)c(Cl)c1 (single isomer, unassigned) [Compound 35a] fall in the same range of EC50: 0.05 to 0.5 µM for the first, 0.05 to 0.5 µM for the second.

First: Cc1nnc(-c2cccc(F)c2CNC(=O)c2c3n(c(=O)n2-c2ccc(OC4CC4)cc2)CC(C)N(C(=O)c2ccc(Br)c(C(F)(F)F)c2)C3)o1 (single isomer, unassigned) [Compound 33a]
Second: CC1Cn2c(c(C(=O)NCc3c(F)cccc3-c3cccc(N)n3)n(-c3ccc(OC4CC4)cc3)c2=O)CN1C(=O)c1ccc(Br)c(C(F)(F)F)c1 (single isomer, unassigned) [Compound 36a]
The EC50 of the first is higher: 0.05 to 0.5 µM for the first, under 0.05 µM for the second. The second is the more potent here.

CC1Cn2c(c(C(=O)NCc3ccccc3-c3ccccn3)n(-c3ccc(OC4CC4)cc3)c2=O)CN1C(=O)c1ccc(Br)c(C(F)(F)F)c1 (single isomer, unassigned) [Compound 34a] and COc1nccc(-c2ccccc2CNC(=O)c2c3n(c(=O)n2-c2ccc(OC4CC4)cc2)CC(C)N(C(=O)c2ccc(Br)c(C(F)(F)F)c2)C3)n1 (single isomer, unassigned) [Compound 38a] cannot be ordered by EC50: under 0.05 µM for the first, under 0.05 µM for the second.

With CNc1cc(-c2ccccc2CNC(=O)c2c3n(c(=O)n2-c2ccc(OC4CC4)cc2)CC(C)N(C(=O)c2ccc(Br)c(C(F)(F)F)c2)C3)ncn1 (single isomer, unassigned) [Compound 40a] the EC50 was under 0.05 µM.
